For ten compounds, EC50 results are on record in US9637520B2, “Template-fixed peptidomimetics with CXCR7 modulating activity” (POLYPHOR AG, priority 2010, dated 2017).

The test concerns the target T1, CXCR7 (Homo sapiens, UniProt P25106).
T1 construct: host or cells: CHO (PathHunter CHO-CXCR7 β-arrestin cells)
Kind of test: CXCR7 β-arrestin recruitment assay (PathHunter CHO-CXCR7, DiscoverX), agonistic assay. The format is cell-based. The note with it: agonistic assay; CHO CXCR7 β-arrestin cells; 90 min at 37° C.; chemiluminescence; read-out: β-Arrestin EC50. Here is the method:
Lyophilized peptides were weighed on a Microbalance (Mettler MX5) and dissolved in DMSO to a final concentration of 10 mM unless otherwise stated. Stock solutions were kept at +4° C., and protected from light.
2.2 CXCR7 β-Arrestin Recruitment Assay
The PathHunter CHO-CXCR7 (DiscoverX) assay was performed according to the manufacturer's protocol. In brief, CHO CXCR7 β-arrestin cells were seeded at a density of 5000 cells per well in 40 μl of F12 medium in black 96-half volume well culture plates and incubated overnight at 37° C. in a humidified atmosphere with 5% CO2. The next day, serial dilutions of PEM compounds have been prepared in DMSO and subsequently diluted in HBSS buffer containing 0.1% BSA.
For agonistic assay, 10 μl of compound solution or a solution of stromal cell-derived factor-1 (SDF-1) as positive control was added to the cells with a final DMSO concentration of 1% (v/v). The plate was incubated for 90 min at 37° C. in 5% CO2 incubator with gentle shaking (300 rpm) before addition of 40 μl of detection reagent per well. Reaction was developed for 90 min at room temperature in the dark with shaking, and chemiluminescence was measured with a Topcount (Perkin Elmer) luminescence counter.
Background: Arrestin recruitment assays detect the binding of arrestin to an activated receptor.

Non-standard residues stand in square brackets, D forms with d. Residues, ends and D or L forms follow the SMILES beside them. *: point of attachment. dPro(cis-4-NH2) = N[C@H]1CN[C@@H](C(=O)O)C1; dPro(4S-NH2) = N[C@@H]1CN[C@@H](C(=O)O)C1; Oic = O=C(O)[C@@H]1C[C@@H]2CCCC[C@@H]2N1; 1Nal = N[C@@H](Cc1cccc2ccccc12)C(=O)O; Pro(3S-OH) = O=C(O)[C@H]1NCC[C@@H]1O; hArg = N=C(N)NCCCC[C@H](N)C(=O)O; 3Pal = N[C@@H](Cc1cccnc1)C(=O)O; Tic = O=C(O)[C@@H]1Cc2ccccc2CN1; Chg = N[C@H](C(=O)O)C1CCCCC1; 2Pyrimidinyl = c1cnc(*)nc1; Orn = NCCC[C@H](N)C(=O)O; Dab = NCC[C@H](N)C(=O)O

T1 sequence (P25106 whole entry): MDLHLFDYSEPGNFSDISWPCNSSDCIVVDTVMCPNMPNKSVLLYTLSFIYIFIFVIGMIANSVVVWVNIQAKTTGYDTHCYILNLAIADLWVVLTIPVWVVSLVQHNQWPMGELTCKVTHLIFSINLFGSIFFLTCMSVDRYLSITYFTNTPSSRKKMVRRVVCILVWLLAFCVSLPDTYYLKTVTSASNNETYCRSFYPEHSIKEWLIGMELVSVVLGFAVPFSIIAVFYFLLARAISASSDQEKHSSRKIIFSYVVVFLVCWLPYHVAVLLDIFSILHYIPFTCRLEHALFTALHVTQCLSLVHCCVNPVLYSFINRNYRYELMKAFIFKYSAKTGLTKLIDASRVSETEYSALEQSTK

With `N=C(N)NCCC[C@@H]1NC(=O)[C@@H]2C[C@@H]3CCCC[C@@H]3N2C(=O)[C@H]2C[C@@H](N)CN2C(=O)[C@H](CCCNC(=N)N)NC(=O)[C@H](Cc2c[nH]c3ccccc23)NC(=O)[C@@H](Cc2ccccc2)NC1=O` [compound 42, cyclo(-Arg-^DPhe-Trp-Arg-^DPro((4R)NH2)-Oic-)] (cyclo([Oic]R[dF]WR[dPro(cis-4-NH2)])), the EC50 – broadly, the concentration giving half of the maximal effect – is 20.5 ± 10.9 nM.

For the compound `N=C(N)NCCC[C@@H]1NC(=O)[C@H](Cc2c[nH]c3ccccc23)NC(=O)[C@@H](Cc2ccccc2)NC(=O)[C@H](Cc2c[nH]c3ccccc23)NC(=O)[C@@H]2Cc3ccccc3CN2C(=O)[C@H]2C[C@H](N)CN2C1=O` [Ex. 25, cyclo(-Trp-^DPhe-Trp-Arg-^DPro((4S)NH2)-Tic-)] (cyclo(R[dPro(4S-NH2)][Tic]W[dF]W)), the EC50 came out at 17.5 ± 12.2 nM.

For the compound `CC[C@H](C)[C@@H]1NC(=O)[C@H]([C@@H](C)O)NC(=O)[C@H]2CCCN2C(=O)[C@H](Cc2c[nH]c3ccccc23)NC(=O)[C@H](CCCNc2ncccn2)NC(=O)[C@@H](CCCNC(=N)N)NC1=O` [Ex. 68, cyclo(-Ile-^DArg-Orn(Ar2)-Trp-^DPro-Thr-)] (cyclo(I[dR][Orn](2Pyrimidinyl)W[dP]T)), the EC50 was determined as 453 ± 186 nM.

Consider `C[C@@H](O)[C@@H]1NC(=O)[C@H]2CCCN2C(=O)[C@H](Cc2c[nH]c3ccccc23)NC(=O)[C@H](CCCNC(=N)N)NC(=O)[C@@H](CCCNC(=N)N)NC(=O)[C@H](C2CCCCC2)NC1=O` [compound 59, cyclo(-Chg-^DArg-Arg-Trp-^DPro-Thr-)] (cyclo([Chg][dR]RW[dP]T)), for which the EC50 is 6.7 ± 2.2 nM.

`N[C@@H]1C[C@@H]2C(=O)N3Cc4ccccc4C[C@H]3C(=O)N[C@@H](Cc3c[nH]c4ccccc34)C(=O)N[C@H](Cc3ccccc3)C(=O)N[C@@H](Cc3c[nH]c4ccccc34)C(=O)N[C@@H](Cc3c[nH]cn3)C(=O)N2C1` [compound 32, cyclo(-Trp-^DPhe-Trp-His-^DPro((4R)NH2)-Tic-)] (cyclo(H[dPro(cis-4-NH2)][Tic]W[dF]W)): the EC50 stood at 20.4 ± 6.6 nM.

On to `NCCCC[C@@H]1NC(=O)[C@H](Cc2c[nH]c3ccccc23)NC(=O)[C@@H](Cc2ccccc2)NC(=O)[C@H](Cc2c[nH]c3ccccc23)NC(=O)[C@@H]2Cc3ccccc3CN2C(=O)[C@H]2C[C@@H](N)CN2C1=O` [compound 31, cyclo(-Trp-^DPhe-Trp-Lys-^DPro((4R)NH2)-Tic-)] (cyclo(K[dPro(cis-4-NH2)][Tic]W[dF]W)), for which the EC50 was found to be 138 ± 115 nM.

`NCC[C@@H]1NC(=O)[C@H](Cc2c[nH]c3ccccc23)NC(=O)[C@@H](Cc2ccccc2)NC(=O)[C@H](Cc2c[nH]c3ccccc23)NC(=O)[C@@H]2Cc3ccccc3CN2C(=O)[C@H]2C[C@@H](N)CN2C1=O` [compound 30, cyclo(-Trp-^DPhe-Trp-Dab-^DPro((4R)NH2)-Tic-)] (cyclo([Dab][dPro(cis-4-NH2)][Tic]W[dF]W)): the EC50 turned out to be 13.6 ± 5 nM.

Turning to `N=C(N)NCCC[C@@H]1NC(=O)[C@H](Cc2c[nH]c3ccccc23)NC(=O)[C@@H](Cc2ccccc2)NC(=O)[C@H](Cc2cccnc2)NC(=O)[C@@H]2Cc3ccccc3CN2C(=O)[C@H]2C[C@@H](N)CN2C1=O` [compound 37, cyclo(-3Pal-^DPhe-Trp-Arg-^DPro((4R)NH2)-Tic-)] (cyclo([3Pal][dF]WR[dPro(cis-4-NH2)][Tic])), the EC50 is 5.1 ± 0.9 nM.

Regarding `N=C(N)NCCC[C@@H]1NC(=O)[C@@H](CCCNC(=N)N)NC(=O)[C@H](Cc2cccc3ccccc23)NC(=O)[C@@H]2[C@@H](O)CCN2C(=O)[C@H]2CCCN2C(=O)[C@H](Cc2c[nH]c3ccccc23)NC1=O` [compound 52, cyclo(-1Nal-^DArg-Arg-Trp-^DPro-Pro((3S)OH)—)] (cyclo([1Nal][dR]RW[dP][Pro(3S-OH)])), the EC50 was 13.7 ± 5.1 nM.

On to `N=C(N)NCCCC[C@@H]1NC(=O)[C@H](Cc2c[nH]c3ccccc23)NC(=O)[C@@H](Cc2ccccc2)NC(=O)[C@H](CCCNC(=N)N)NC(=O)[C@@H]2Cc3ccccc3CN2C(=O)[C@H]2C[C@@H](N)CN2C1=O` [compound 39, cyclo(-Arg-^DPhe-Trp-hArg-^DPro((4R)N H2)-Tic-)] (cyclo(R[dF]W[hArg][dPro(cis-4-NH2)][Tic])), for which the half-maximal effective concentration (EC50) was found to be 352 ± 79.3 nM.
